Measurements as given in patent US6737383B1, “Herbicidal oxadiazolidines” (priority 1999, dated 2004).

Legend:
corn = assay: Test B pre/postemergence corn; type: in vivo, Zea mays
Summary of the method: (§1)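 Herbicidal effect was estimated by eye on a ten-point control scale after plants spent twelve to sixteen days in a greenhouse following soil or foliar treatment. Foliar sprays targeted plants at one to four leaves; all doses were formulated in a non-phytotoxic solvent with surfactant.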

smallflower flatsedge = assay: Test B flood test smallflower flatsedge; type: in vivo, Cyperus difformis; settings: for S. Flatsedge plant response rating: scale of 0 to 10 where 0 is no effect and 10 is complete control
Summary of the method: (§2)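 Each value is a visual injury score relative to controls, with 10 meaning complete control and 0 no effect. Evaluation took place twelve to sixteen days after the 2-leaf-stage plants were treated and kept in the greenhouse.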

rice = assay: Test B flood test rice; type: in vivo, Oryza sativa
Summary of the method: as §2

wild oat = assay: Test B pre/postemergence wild oat; type: in vivo, Avena fatua
Summary of the method: as §1

crabgrass = assay: Test B pre/postemergence crabgrass; type: in vivo, Digitaria sanguinalis
Summary of the method: as §1

morningglory = assay: Test B pre/postemergence morningglory; type: in vivo, Ipomoea hederacea
Summary of the method: as §1

surinam grass = assay: Test B pre/postemergence surinam grass; type: in vivo, Brachiaria decumbens
Summary of the method: as §1

blackgrass = assay: Test B pre/postemergence blackgrass; type: in vivo, Alopecurus myosuroides
Summary of the method: as §1

velvetleaf = assay: Test B pre/postemergence velvetleaf; type: in vivo, Abutilon theophrasti
Summary of the method: as §1

purple nutsedge = assay: Test B pre/postemergence purple nutsedge; type: in vivo, Cyperus rotundus
Summary of the method: as §1

soybean = assay: Test B pre/postemergence soybean; type: in vivo, Glycine max
Summary of the method: as §1

giant foxtail = assay: Test B pre/postemergence giant foxtail; type: in vivo, Setaria faberii
Summary of the method: as §1

bamyardgrass = assay: Test B flood test barnyardgrass; type: in vivo, Echinochloa crus-galli
Summary of the method: as §2

cocklebur = assay: Test B pre/postemergence cocklebur; type: in vivo, Xanthium strumarium
Summary of the method: as §1

wheat = assay: Test B pre/postemergence wheat; type: in vivo, Triticum aestivum
Summary of the method: as §1

duck salad = assay: Test B flood test duck salad; type: in vivo, Heteranthera limosa
Summary of the method: as §2

bedstraw = assay: Test B pre/postemergence bedstraw; type: in vivo, Galium aparine
Summary of the method: as §1

[1] = Postemergence, Rate 125 g/ha, scale of 0 to 10 where 0 is no effect and 10 is complete control
[2] = Preemergence, Rate 31 g/ha, visual rating, scale 0 to 10 (0 no effect, 10 complete control)
[3] = Preemergence, Rate 62 g/ha, scale 0 to 10 (0 no effect, 10 complete control)
[4] = Preemergence, Rate 125 g/ha, 0 is no effect, 10 is complete control
[5] = Preemergence, Rate 250 g/ha, scale 0 to 10, 0 is no effect, 10 is complete control
[6] = Rate 31 g/ha, Postemergence, scale 0 to 10
[7] = Rate 62 g/ha, Postemergence, scale of 0 to 10 where 0 is no effect and 10 is complete control
[8] = Rate 250 g/ha, Postemergence, scale 0 to 10, 0 is no effect, 10 is complete control
[9] = Rate 250 g/ha, Postemergence (flood test), scale 0 to 10, 0 is no effect, 10 is complete control
[10] = Postemergence (flood test species), Rate 125 g/ha, scale of 0 to 10 where 0 is no effect and 10 is complete control
[11] = Rate 31 g/ha, Postemergence section (flood test species), scale 0 to 10
[12] = Rate 62 g/ha, Postemergence section, flood test species, scale of 0 to 10 where 0 is no effect and 10 is complete control

Cc1noc(C)c1-n1c(=O)on(C(=O)N(c2ccc(F)cc2)C(C)C)c1=O [Compound 155]
0: Corn plant response rating (corn; [1]) | Corn plant response rating (corn; [2]) | Corn plant response rating (corn; [3]) | Corn plant response rating (0 to 10 scale) (corn; [4]) | Corn plant response rating (corn; [5]) | Corn plant response rating (corn; [6]) | Corn plant response rating (corn; [7]) | S. Flatsedge plant response rating (smallflower flatsedge; Postemergence (flood test species), Rate 125 g/ha) | S. Flatsedge plant response rating (smallflower flatsedge; Rate 62 g/ha, Postemergence section, flood test species) | Plant response rating, S. Flatsedge (smallflower flatsedge; [9]) | Rice plant response rating (rice; [10]) | Rice plant response rating (rice; [11]) | Rice plant response rating (rice; [12]) | Plant response rating, Rice (rice; [9]) | Wild oats plant response rating (wild oat; [2]) | Wild oats plant response rating (wild oat; [3]) | Wild oats plant response rating (0 to 10 scale) (wild oat; [4]) | Wild oats plant response rating (wild oat; [5]) | Wild oats plant response rating (wild oat; [7]) | Plant response rating, Wild oats (wild oat; [8]) | Crabgrass plant response rating (crabgrass; [2]) | Crabgrass plant response rating (crabgrass; [3]) | Crabgrass plant response rating (0 to 10 scale) (crabgrass; [4]) | Crabgrass plant response rating (crabgrass; [6]) | Morningglory plant response rating (morningglory; [1]) | Morningglory plant response rating (morningglory; [2]) | Morningglory plant response rating (morningglory; [3]) | Morningglory plant response rating (0 to 10 scale) (morningglory; [4]) | Morningglory plant response rating (morningglory; [5]) | Morningglory plant response rating (morningglory; [6]) | Morningglory plant response rating (morningglory; [7]) | B. signalgrass plant response rating (surinam grass; [1]) | B. signalgrass plant response rating (surinam grass; [2]) | B. signalgrass plant response rating (surinam grass; [3]) | B. signalgrass plant response rating (0 to 10 scale) (surinam grass; [4]) | B. signalgrass plant response rating (surinam grass; [5]) | B. signalgrass plant response rating (surinam grass; [6]) | B. signalgrass plant response rating (surinam grass; [7]) | Plant response rating, B. signalgrass (surinam grass; [8]) | Blackgrass plant response rating (blackgrass; [1]) | Blackgrass plant response rating (blackgrass; [2]) | Blackgrass plant response rating (blackgrass; [3]) | Blackgrass plant response rating (0 to 10 scale) (blackgrass; [4]) | Blackgrass plant response rating (blackgrass; [6]) | Blackgrass plant response rating (blackgrass; [7]) | Velvetleaf plant response rating (velvetleaf; [2]) | Velvetleaf plant response rating (velvetleaf; [3]) | Velvetleaf plant response rating (0 to 10 scale) (velvetleaf; [4]) | Velvetleaf plant response rating (velvetleaf; [5]) | Velvetleaf plant response rating (velvetleaf; [7]) | Plant response rating, Velvetleaf (velvetleaf; [8]) | Nutsedge plant response rating (purple nutsedge; [1]) | Nutsedge plant response rating (purple nutsedge; [2]) | Nutsedge plant response rating (purple nutsedge; [3]) | Nutsedge plant response rating (0 to 10 scale) (purple nutsedge; [4]) | Nutsedge plant response rating (purple nutsedge; [5]) | Nutsedge plant response rating (purple nutsedge; [6]) | Nutsedge plant response rating (purple nutsedge; [7]) | Plant response rating, Nutsedge (purple nutsedge; [8]) | Soybean plant response rating (soybean; [2]) | Soybean plant response rating (soybean; [3]) | Soybean plant response rating (0 to 10 scale) (soybean; [4]) | Soybean plant response rating (soybean; [5]) | Giant foxtail plant response rating (giant foxtail; [2]) | Giant foxtail plant response rating (giant foxtail; [3]) | Giant foxtail plant response rating (0 to 10 scale) (giant foxtail; [4]) | Giant foxtail plant response rating (giant foxtail; [6]) | Barnyardgrass plant response rating (bamyardgrass; [10]) | Barnyardgrass plant response rating (bamyardgrass; [11]) | Barnyardgrass plant response rating (bamyardgrass; [12]) | Plant response rating, Barnyardgrass (bamyardgrass; [9]) | Cocklebur plant response rating (cocklebur; [1]) | Cocklebur plant response rating (cocklebur; [2]) | Cocklebur plant response rating (cocklebur; [3]) | Cocklebur plant response rating (0 to 10 scale) (cocklebur; [4]) | Cocklebur plant response rating (cocklebur; [5]) | Cocklebur plant response rating (cocklebur; [6]) | Cocklebur plant response rating (cocklebur; [7]) | Plant response rating, Cocklebur (cocklebur; [8]) | Wheat plant response rating (wheat; [2]) | Wheat plant response rating (wheat; [3]) | Wheat plant response rating (0 to 10 scale) (wheat; [4]) | Wheat plant response rating (wheat; [5]) | Wheat plant response rating (wheat; [7]) | Plant response rating, Wheat (wheat; [8]) | Ducksalad plant response rating (duck salad; [10]) | Ducksalad plant response rating (duck salad; [11]) | Ducksalad plant response rating (duck salad; [12]) | Plant response rating, Ducksalad (duck salad; [9]) | Bedstraw plant response rating (bedstraw; [1]) | Bedstraw plant response rating (bedstraw; [2]) | Bedstraw plant response rating (bedstraw; [3]) | Bedstraw plant response rating (0 to 10 scale) (bedstraw; [4]) | Bedstraw plant response rating (bedstraw; [5]) | Bedstraw plant response rating (bedstraw; [6]) | Bedstraw plant response rating (bedstraw; [7]) | Plant response rating, Bedstraw (bedstraw; [8])
2: Plant response rating, Corn (corn; [8]) | Crabgrass plant response rating (crabgrass; [1]) | Plant response rating, Morningglory (morningglory; [8]) | Blackgrass plant response rating (blackgrass; [5]) | Plant response rating, Blackgrass (blackgrass; [8]) | Giant foxtail plant response rating (giant foxtail; [5])
8: Plant response rating, Crabgrass (crabgrass; [8])
1: Crabgrass plant response rating (crabgrass; [7]) | Soybean plant response rating (soybean; [1]) | Soybean plant response rating (soybean; [7]) | Plant response rating, Soybean (soybean; [8]) | Giant foxtail plant response rating (giant foxtail; [7])
6: Crabgrass plant response rating (crabgrass; [5]) | Plant response rating, Giant foxtail (giant foxtail; [8])
3: Giant foxtail plant response rating (giant foxtail; [1])
